Test results reported in patent EP1125946A1, “Cell adhesion therapy through modulation of a Rap family member or of a GEF (guanine nucleotide exchange factor)” (Universitair Medisch Centrum Utrecht, priority 2000, dated 2001).
One block for each compound: values may come before it.

Tests used:
Ras = test: GTP-bound GTPase pull-down with GST-Raf-RBD and immunoblotting in Jurkat cells; type: cell-based; details: Jurkat JHMI 2.2 cells, time-course; TPA 100 ng/ml, 5 minutes
Excerpt: (§1) To address which Ras family members, if any, might participate in CD31 signaling, we precipitated endogenous GTPases from lysates of CD31-stimulated Jurkat with GST fusion proteins of Ras family-binding domains (RBDs) of Raf and RalGDS, which bind with high selectivity and specificty to activated Ras and Rap GTPases, respectively (de Rooij and Bos, 1997; Franke et al., 1997). Immunoblotting of precipitated GTPases provides a qualitative representation of GTPase activation status following cell stimulation, corresponding to quantitative changes detected using classical GDP/GTP-binding ratio techniques. […] GTP-bound R-Ras was detected in Raf-RBD pull-downs only following longer exposures of films, reflecting the relatively low levels of R-Ras protein expression in Jurkat. […]
Figure 1. […] Bound GTPases were resolved on SDS-PAGE, transferred to PVDF membrane, and detected by immunoblotting with antibodies against the indicated proteins, followed by enhanced chemiuminescence (ECL). […] JHMI cells were activated for 2 minutes with medium (-), anti-CD3 antibody T3b (1:200) or the indicated anti-CD31 antibodies (10 µg/ml), and Rap1 activation detected as in A. Fold activation of Rap1 compared to untreated cells was obtained by quantitating pixels from representative blots using Adobe Photoshop software. […]

Rap1 = test: GTP-bound GTPase pull-down with GST-RalGDS-RBD and immunoblotting in Jurkat cells; type: cell-based; details: Jurkat JHMI 2.2 cells; TPA 100 ng/ml, 5 minutes
Excerpt: as §1
Figure 1. […] Bound GTPases were resolved on SDS-PAGE, transferred to PVDF membrane, and detected by immunoblotting with antibodies against the indicated proteins, followed by enhanced chemiuminescence (ECL). […] Fold activation of Rap1 compared to untreated cells was obtained by quantitating pixels from representative blots using Adobe Photoshop software. […] CD31 WT, CD31 GPI, and Y663/686F Jurkat cell lines were stimulated for two minutes with medium (-) or 10 µg/ml PECAM 1.3 antibody and activated Rap1 detected as in A. Results shown in each panel are representative of three independent experiments.

full length CalDAG-GEF 1 = biological target: T1, full length CalDAG-GEF 1 (Homo sapiens, UniProt Q7LDG7); test: in vitro activation of Rap1 (mantGDP-loaded) by full length CalDAG-GEF versus mutant lacking the regulatory domain; type: biochemical; details: 100 µM calcium added; compared with mutant lacking the regulatory domain
T1 construct: To that end full length CalDAG-GEF 1 and a CalDAG-Gef mutants lacking the regulatory domain was compared
T1 sequence (Q7LDG7 1-609): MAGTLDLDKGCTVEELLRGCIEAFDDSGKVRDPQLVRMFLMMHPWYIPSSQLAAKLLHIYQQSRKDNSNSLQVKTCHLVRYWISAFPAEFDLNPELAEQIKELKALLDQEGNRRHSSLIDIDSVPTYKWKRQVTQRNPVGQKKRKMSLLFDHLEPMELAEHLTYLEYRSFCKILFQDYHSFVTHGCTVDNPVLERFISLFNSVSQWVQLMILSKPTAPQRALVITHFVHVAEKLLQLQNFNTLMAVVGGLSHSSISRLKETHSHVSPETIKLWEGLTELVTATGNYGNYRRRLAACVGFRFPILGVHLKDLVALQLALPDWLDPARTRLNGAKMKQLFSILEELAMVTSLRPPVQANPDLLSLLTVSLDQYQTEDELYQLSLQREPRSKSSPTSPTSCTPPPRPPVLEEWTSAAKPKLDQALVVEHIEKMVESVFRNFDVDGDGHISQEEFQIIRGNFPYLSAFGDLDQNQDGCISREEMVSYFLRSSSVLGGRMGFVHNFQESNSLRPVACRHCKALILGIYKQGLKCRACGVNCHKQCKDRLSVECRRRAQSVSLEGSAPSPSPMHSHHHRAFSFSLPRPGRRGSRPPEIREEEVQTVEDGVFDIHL
Description: We therefore investigated whether CalDAG-GEF was regulated by an auto-inhibitory domain. To that end full length CalDAG-GEF 1 and a CalDAG-Gef mutants lacking the regulatory domain was compared for in vitro activation of Rap1.
Figure 9. CalDAG-GEF contains an autoinhibitory domain regulated by calcium. Equal amounts of CalDAG-GEF and mutant CalDAG-GEF lacking the DAG and Ca binding domains were incubayed with mantGDP-loaded Rap1 and incubated in the presence or absence of 100 µM calcium.

LFA-1 = test: flow cytometry of mAB 24 epitope expression on Jurkat cells; type: cell-based; details: Jurkat cells coincubated with mAB 24 and 400 µM MnCl2; relative to unstimulated
Description: The anti-aL integrin antibody mAB 24 recognizes a conformation-dependent ligand-induced epitope on LFA-1, and induction of the mAB 24 epitope correlates with increased LFA-1 affinity for ICAM (Dransfield and Hogg, 1989). […] This conformational change can also be induced by LFA-1 exposure to Mn^2+, independently of "inside-out" signalling. […] Incubation of cells with mAB 24 at 4°C abolished CD31 and Mn^2+ -induced mAB 24 expression to background levels (data not shown), consistent with the temperature-sensitivity of the mAB 24 epitope (Dransfield and Hogg, 1989). […]
Flow cytometric analysis of transfected cells was performed by cotransfecting Jurkat JHMI cells with […] pCMV-EGFP C1 plasmid (Promega) and the indicated cDNA constructs. […] Fluorescence intensity of EGFP-transfected cells was determined using a FACsCaliber flow cytometer and CellQuest software (both from Becton Dickinson).
Figure 4. […] Cells were sequentially stained with anti-b2 integrin antibody L15 and rabbit anti-mouse Ig-RPE-Cy5 conjugate, and GFP-expressing cells analysed by flow cytometry. […] Alternatively, unstimulated cells were coincubated with mAB 24 and 400 µM MnCl2 (Mn). mAB 24 expression was assessed by flow cytometry, and expression levels normalized to 1 for unstimulated GFP-alone cells in each experiment. […]

[1] = biological target: catalytic domain of Epac2 (Mus musculus, UniProt Q9EQZ6)
Chain of catalytic domain of Epac2 (Q9EQZ6 478-1011): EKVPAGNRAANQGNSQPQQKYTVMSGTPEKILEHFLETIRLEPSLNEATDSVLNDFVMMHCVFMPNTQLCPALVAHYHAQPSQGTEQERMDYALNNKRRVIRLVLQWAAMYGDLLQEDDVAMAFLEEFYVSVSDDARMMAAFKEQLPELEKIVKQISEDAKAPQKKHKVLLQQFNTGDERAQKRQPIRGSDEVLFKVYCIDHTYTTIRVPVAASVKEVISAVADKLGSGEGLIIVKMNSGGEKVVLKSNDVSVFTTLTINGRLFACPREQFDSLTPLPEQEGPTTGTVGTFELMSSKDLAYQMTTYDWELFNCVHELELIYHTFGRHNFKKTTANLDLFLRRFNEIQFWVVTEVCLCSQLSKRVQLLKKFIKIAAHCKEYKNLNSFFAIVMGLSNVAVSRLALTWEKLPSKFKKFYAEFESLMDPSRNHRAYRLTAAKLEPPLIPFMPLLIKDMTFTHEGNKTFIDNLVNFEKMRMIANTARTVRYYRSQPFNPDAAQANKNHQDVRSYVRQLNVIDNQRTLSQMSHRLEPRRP
Chain of catalytic domain of Epac2 (Q9EQZ6 1-463 isoform Q9EQZ6-3 partner): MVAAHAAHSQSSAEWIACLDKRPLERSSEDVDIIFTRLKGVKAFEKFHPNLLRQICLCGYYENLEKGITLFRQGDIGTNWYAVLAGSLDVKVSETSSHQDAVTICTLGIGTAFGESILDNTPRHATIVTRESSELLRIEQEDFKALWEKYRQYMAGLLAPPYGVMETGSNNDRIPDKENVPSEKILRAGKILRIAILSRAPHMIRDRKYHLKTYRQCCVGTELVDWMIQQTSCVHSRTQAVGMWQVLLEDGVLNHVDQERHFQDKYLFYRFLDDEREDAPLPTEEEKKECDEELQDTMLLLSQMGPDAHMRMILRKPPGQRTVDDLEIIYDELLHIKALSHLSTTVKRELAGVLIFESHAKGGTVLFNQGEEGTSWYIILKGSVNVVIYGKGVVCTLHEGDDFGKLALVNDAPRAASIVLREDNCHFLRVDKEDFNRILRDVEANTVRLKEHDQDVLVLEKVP
Description: We therefore isolated the regulatory domains of both Epac1 and Epac2 and incubated them with the corresponding catalytic domains.
Protein production was induced in Bl-21 bacteria using 100 nM IPTG for 20 h at room temperature. After protein production, bacteria were pelleted and lyzed in ice-cold PBS containing 1% Triton-X100 and protease inhibitors. The lysate was sonicated three times for 10 seconds and centrifuged at 10,000 x g to remove insoluble material. GST-fusion proteins we purified from the cleared lysate by batch-wise incubation with glutathione-agarose beads (Sigma), eluted from the beads in buffer containing 50 mM Tris pH 7.5, 100 mM NaCl, 10% glycerol and 10mM glutathione and dialyzed for 20 hours in the same buffer without glutathione. When indicated, proteins were cleaved from the GST-tag by incubation with thrombin and purified by gelfiltration.
Briefly, 100 nM of purified GTPase, loaded with fluorescently labeled 2',3'-bis (O) -N-methylantharanoloyl-guanosinediphosphate(mantGDP), was incubated, in the presence of excess unlabelled GDP, with 50 nM of purified GEF unless indicated differently. Release of mGDP was measured in realtime as a decrease in fluorescence. To calculate reaction rates, single exponential functions were fit using the program Grafit3.0 (Eritacus). […]

[2] = biological target: catalytic domain of Epac1 (Homo sapiens, UniProt O95398)
Chain of catalytic domain of Epac1 (O95398 44-371): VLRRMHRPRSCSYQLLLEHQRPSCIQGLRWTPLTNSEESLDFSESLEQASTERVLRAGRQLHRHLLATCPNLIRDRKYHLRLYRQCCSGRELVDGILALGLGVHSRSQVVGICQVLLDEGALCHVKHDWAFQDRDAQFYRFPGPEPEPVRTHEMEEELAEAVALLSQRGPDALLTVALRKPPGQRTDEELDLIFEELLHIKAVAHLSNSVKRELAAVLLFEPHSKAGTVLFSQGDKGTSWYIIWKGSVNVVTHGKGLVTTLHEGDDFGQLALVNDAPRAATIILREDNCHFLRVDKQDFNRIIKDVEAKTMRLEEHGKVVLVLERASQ
Description: Next we investigated whether a direct covalent linkage between the catalytic domain and the B-site is essential for this regulation, or whether they can function as separate domains. We therefore isolated the regulatory domains of both Epac1 and Epac2 and incubated them with the corresponding catalytic domains.
For purification of Glutathione S-transferase (GST) -fusion constructs all cDNAs were cloned in pGEX bacterial expression vectors. […] The GST fusion construct of Repac contains amino acids 2-580. The catalytic domain CalDAG-GEFI contains amino acids 3-422. The catalytically active PDZ-GEF1 construct contains amino acids 251-1001. The GST-PKA fusion construct used contained the R1a-subunit of Bovine PKA, lacking amino acids 1-91. Protein production was induced in Bl-21 bacteria using 100 nM IPTG for 20 h at room temperature. After protein production, bacteria were pelleted and lyzed in ice-cold PBS containing 1% Triton-X100 and protease inhibitors. The lysate was sonicated three times for 10 seconds and centrifuged at 10,000 x g to remove insoluble material. […]
Briefly, 100 nM of purified GTPase, loaded with fluorescently labeled 2',3'-bis (O) -N-methylantharanoloyl-guanosinediphosphate(mantGDP), was incubated, in the presence of excess unlabelled GDP, with 50 nM of purified GEF unless indicated differently. Release of mGDP was measured in realtime as a decrease in fluorescence. […]

SMILES: CCCCCCCCCCCCCC(=O)O[C@@H]1[C@@H](C)[C@@]2(O)[C@@H](C=C(CO)C[C@]3(O)C(=O)C(C)=C[C@@H]23)[C@@H]2C(C)(C)[C@]12OC(C)=O [TPA]
- activation of Ras (Ras): activated
- activation of Rap1 (Rap1): activated

SMILES: [Ca+2] [calcium]
- efficiency of full length CalDAG-GEF in activating Rap1 (full length CalDAG-GEF 1): became as efficient as the mutant

SMILES: [Cl][Mn][Cl] [Mn^2+, MnCl2]
- increase in mAB 24 expression (LFA-1): 2.25-2.5 fold

- effect on inhibition of the catalytic domain by the regulatory domain [1]: abolishes the inhibitory effect
- effect on inhibition of the catalytic domain by the regulatory domain [2]: abolishes the inhibitory effect
SMILES: Nc1ncnc2c1ncn2[C@@H]1O[C@@H]2COP(=O)(O)O[C@H]2[C@H]1O [cAMP]
